# Test system: panel of cancer cell lines
# Assay: Cell viability (CellTiter-Glo) dose-response across cancer cell line panel;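 further: after 72 h compound incubation with CellTiter-Glo ATP readout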
# Type: cell-based, human
# Conditions: Homo sapiens
# Source text: Next, we explored the effect of CSN5 inhibition on the viability of cancer cells. To obtain a comprehensive picture, we generated dose–response curves with a CSN5 inhibitor across more than 500 cancer cell lines in a previously described standardized setting[47] (Supplementary Data 1).
# A standardized CellTiter-Glo Assay (Promega #G7570) based on the quantification of ATP was applied according to the manufacturer's protocol to measure the amount of viable cells in culture. In brief, cells were seeded into 384-well plates at optimal density for each cell line. After 4 h, compounds were added at different concentrations in growth medium and incubated for another 72 h in a humidifying chamber at 37 °C and 5% CO2. […] EC50 values were calculated from the plot of percentage of inhibition versus inhibitor concentration using the nonlinear regression analysis software Origin 7.5SR6 (OriginLab Corp.).
smiles,measurement,setting,value
"COCc1ccccc1NCc1ccc([C@@H]2[C@H](O)CCCc3cncn32)c(-c2ccccc2Cl)c1 [CSN5i-2e, (5R,6R)-5-(2′-chloro-5-(((2-(methoxymethyl)phenyl)amino)methyl)-[1,1′-biphenyl]-2-yl)-6,7,8,9-tetrahydro-5H-imidazo[1,5-a]azepin-6-ol]",EC50,HCC-1833 cells,10.6 µM
same,EC50,"HCT-15, HCT-15 cells",6.96 µM
same,EC50,HD-MY-Z cells,3.49 µM
same,EC50,"HEC-50B, HEC-50B cells",13 µM
same,EC50,HEC-108 cells,14.7 µM
same,EC50,HEC-151 cells,11.1 µM
same,EC50,HEC-265 cells,14.2 µM
same,EC50,"HEL 92.1.7, HEL 92.1.7 cells",7.27 µM
same,EC50,"HEL, HEL cells",6.98 µM
same,EC50,"HEY A8, Hey-A8 cells",12.9 µM
same,EC50,"HL-60, HL-60 cells",15.7 µM
same,EC50,HLC-1 cells,11.5 µM
same,EC50,"HLE, HLE cells",15.5 µM
same,EC50,"HLF, HLF cells",> 30 µM
same,EC50,HMC-1-8 cells,15.3 µM
same,EC50,"HPBALL, HPB-ALL cells",14.1 µM
same,EC50,"HRT-18, HRT-18 cells",9.14 µM
same,EC50,"HSC-2, HSC-2 cells",23.9 µM
same,EC50,"HSC-3, HSC-3 cells",12.7 µM
same,EC50,"HSC-4, HSC-4 cells",10 µM
same,EC50,"HT-29, HT-29 cells",12.4 µM
same,EC50,Hep 3B2.1-7 cells,11.1 µM
same,EC50,"Hep3B, Hep3B cells",14.2 µM
same,EC50,"Hs 294T, Hs 294T cells",11.7 µM
same,EC50,"Hs766T, Hs 766T cells",24.2 µM
same,EC50,Hs 852.T cells,15.4 µM
same,EC50,Hs 936.T cells,17.2 µM
same,EC50,Hs 944.T cells,15.3 µM
same,EC50,HuG1-N cells,10.6 µM
same,EC50,"HuP-T3, HUP-T3 cells",23.8 µM
same,EC50,"HuP-T4, HUP-T4 cells",11 µM
same,EC50,"Huh-7, HuH-7 cells",9.02 µM
same,EC50,"IGR-37, IGR-37 cells",17.6 µM
same,EC50,"IGR-39, IGR-39 cells",10.6 µM
same,EC50,"IGROV-1, IGROV1 cells",12.3 µM
same,EC50,"IPC-298, IPC-298 cells",10.3 µM
same,EC50,"Ishikawa, Ishikawa cells",9.64 µM
same,EC50,"J82, J82 cells",> 30 µM
same,EC50,"JHH7, JHH-7 cells",16.4 µM
same,EC50,"JHH-4, JHH-4 cells",16.2 µM
same,EC50,JHOM-1 cells,8.92 µM
same,EC50,JHOS-2 cells,> 30 µM
same,EC50,JHUEM-2 cells,15.3 µM
same,EC50,"JIMT-1, JIMT-1 cells",13.1 µM
same,EC50,"JVM-2, JVM-2 cells",13 µM
same,EC50,K029AX cells,17 µM
same,EC50,"KARPAS-422, KARPAS-422 cells",12.5 µM
same,EC50,"KATO III, KATO III cells",9.94 µM
same,EC50,"KBM-7, KBM-7 cells",8.38 µM
same,EC50,"KE-97, KE-97 cells",7.93 µM
same,EC50,"KLE, KLE cells",12.6 µM
same,EC50,"KMM-1, KMM-1 cells",10.6 µM
same,EC50,"KMRC-1, KMRC-1 cells",17.7 µM
same,EC50,KMRC-20 cells,18.5 µM
same,EC50,"KMS-11, KMS-11 cells",28.6 µM
same,EC50,"KNS-62, KNS-62 cells",15.4 µM
same,EC50,KO52 cells,18.3 µM
same,EC50,KP-1N cells,15 µM
same,EC50,KS-1 cells,15.6 µM
same,EC50,"KU-19-19, KU-19-19 cells",16 µM
same,EC50,KURAMOCHI cells,10.6 µM
same,EC50,"KYSE-70, KYSE-70 cells",10.4 µM
same,EC50,"KYSE-150, KYSE-150 cells",10.7 µM
same,EC50,"KYSE-180, KYSE-180 cells",14.1 µM
same,EC50,"KYSE-410, KYSE-410 cells",15 µM
same,EC50,"Kasumi-3, Kasumi3 cells",13 µM
same,EC50,Kasumi-6 cells,6.45 µM
same,EC50,L3.3 cells,20.2 µM
same,EC50,"L-363, L-363 cells",9.54 µM
same,EC50,"L-428, L-428 cells",11.8 µM
same,EC50,LC-1F cells,16.3 µM
same,EC50,"LCLC-103H, LCLC-103H cells",8.84 µM
same,EC50,LIM1899 cells,10.3 µM
same,EC50,LIM2099 cells,11.4 µM
same,EC50,LIM2405 cells,9.94 µM
same,EC50,LIM2550 cells,6.3 µM
same,EC50,LMSU cells,7.62 µM
same,EC50,"LN-18, LN-18 cells",13 µM
same,EC50,"LN-229, LN-229 cells",8.07 µM
same,EC50,"LOU-NH91, LOU-NH91 cells",11.2 µM
same,EC50,"LOX IMVI, LOX IMVI cells",9.19 µM
same,EC50,"LP-1, LP-1 cells",11.9 µM
same,EC50,"LS180, LS 180 cells",10.5 µM
same,EC50,"LS-513, LS513 cells",8.14 µM
same,EC50,"LUDLU-1, LUDLU-1 cells",> 30 µM
same,EC50,"Li-7, Li-7 cells",23.7 µM
same,EC50,"Lu-65, LU65 cells",12.5 µM
same,EC50,"Lu-99, LU99 cells",9.78 µM
same,EC50,"M-07e, M-07e cells",16 µM
same,EC50,MCAS cells,12.5 µM
same,EC50,MCC14/2 cells,9.96 µM
same,EC50,"MDA-MB-157, MDA-MB-157 cells",14.7 µM
same,EC50,"MDA-MB-175-VII, MDA-MB-175-VII cells",19.8 µM
same,EC50,"MDA-MB-231, MDA-MB-231 cells",15.3 µM
same,EC50,"MDA-MB-415, MDA-MB-415 cells",13.4 µM
same,EC50,"MDA-MB-435S, MDA-MB-435S cells",12 µM
same,EC50,"MDA-MB-436, MDA-MB-436 cells",10.1 µM
same,EC50,"MDA-MB-453, MDA-MB-453 cells",6.48 µM
same,EC50,"MDA-MB-468, MDA-MB-468 cells",10.7 µM
same,EC50,"MDST8, MDST8 cells",11.2 µM
same,EC50,"ME-180, ME180 cells",11.9 µM
same,EC50,MEL-HO cells,10.9 µM
same,EC50,"MEL-JUSO, MEL-JUSO cells",18.1 µM
same,EC50,"MES-SA, MES-SA cells",12.5 µM
same,EC50,"MFE-280, MFE-280 cells",10.8 µM
same,EC50,"MFE-296, MFE-296 cells",10.5 µM
same,EC50,"MFM-223, MFM223 cells",17.2 µM
same,EC50,"MINO, Mino cells",7.97 µM
same,EC50,"MKN-1, MKN1 cells",9.59 µM
same,EC50,"MKN-45, MKN-45 cells",26.8 µM
same,EC50,"ML-2, ML-2 cells",6.14 µM
same,EC50,MM127 cells,6.45 µM
same,EC50,MM138 cells,10.4 µM
same,EC50,MM253 cells,26.5 µM
same,EC50,MM370 cells,23 µM
same,EC50,MM383 cells,11.2 µM
same,EC50,MM386 cells,25.5 µM
same,EC50,MM415 cells,13.3 µM
same,EC50,MM426 cells,24.4 µM
same,EC50,MM466 cells,24.5 µM
same,EC50,"MM473, MM473 cells",10.4 µM
same,EC50,MM485 cells,11.2 µM
same,EC50,MM537 cells,14 µM
same,EC50,MM576 cells,15.8 µM
same,EC50,MM603 cells,9.82 µM
same,EC50,MOG-G-CCM cells,10.9 µM
same,EC50,"MOLM-13, MOLM-13 cells",6.66 µM
same,EC50,"MOLP-8, MOLP-8 cells",6.91 µM
same,EC50,"MOLT-16, MOLT-16 cells",5.34 µM
